What was measured:
Format in all cases: cell-based
[1] = test system: promastigote forms of Leishmania amazonensis (WHOM/BR/75/JOSEFA strain); assay: Antiproliferative assay (XTT), promastigote forms, 72 h; details: for IC50: Leishmania amazonensis, promastigote form, 72 h, XTT, read-out: L. amazonensis IC50; for SIL-F, selectivity index (Fibroblast CC50/L. amazonensis IC50): fibroblast vs promastigote; for SIL-M, selectivity index (Macrophages CC50/L. amazonensis IC50): macrophages vs promastigote
Experimental: (§1) The antiproliferative activity was determined in promastigote forms of Leishmania amazonensis (WHOM/BR/75/JOSEFA strain) and epimastigote forms of Trypanosoma cruzi (Y strain). The promastigote forms of L. amazonensis were cultured in Warren medium (brain heart infusion, hemin, and folic acid; pH 7.4) supplemented with 10 % fetal bovine serum (FBS) at 25 °C. The epimastigote forms of T.cruzi were cultured in LIT medium (liver infusion tryptose; hemin, and folic acid; pH 7.4) supplemented with 10 % FBS at 28 °C. Cytotoxicity in mammalian cells was determined in fibroblast line (L929) and macrophages (J774 A1). Fibroblasts were cultured in DMEM medium (pH 7.2) supplemented with 10 % FBS at 37 °C in a 5 % CO2 atmosphere. Macrophages were cultured in RPMI‐1640 (pH 7.2) medium supplemented with 10 % FBS at 37 °C in a 5 % CO2 atmosphere.
(§2) Stock solutions of the compounds were prepared in DMSO and then diluted in the respective medium.
(§3) Promastigote forms (1×10^6 parasites.mL^−1) were cultured in 96‐well plates in the presence and absence of different concentrations of compounds diluted in Warren medium supplemented with 10 % FBS and incubated for 72 h. The epimastigote forms (1×10^6 parasites.mL^−1) were cultured in 96‐well plates in the presence and absence of different concentrations of compounds diluted in LIT medium supplemented with 10 % FBS and incubated for 96 h. After treatment, the parasites were incubated with a solution of 2,3‐bis(2‐methoxy‐4‐nitro‐5‐sulfophenyl)‐2H‐tetrazolium‐5‐carboxanilide (XTT; 0.5 mg.mL^−1) and phenazine methanesulfonate activator (PMS; 0.06 mg.mL^−1) in PBS for 4 h. Then, the absorbance was read in a microplate reader (Bio Tek‐Power Wave XS) at 450 nm.[20] The percentage of viable parasites was calculated in relation to the control in order to determine the concentration that inhibits 50 % of the protozoa (IC50). The control groups of each experiment received the same experimental conditions as the treated groups (cell concentration used, temperature, and incubation time).

[2] = Cytotoxicity assay in mammalian cells (MTT), fibroblasts, 72 h; details: mouse, L929 fibroblast cells, pH 7.2; 50 % inhibition of fibroblast growth, 72 h, MTT
Experimental: as §1, §2
(§4) Fibroblast cell (2.5×10^5 cells.mL^−1) suspensions were prepared in DMEM medium supplemented with 10 % FBS and added to 96‐well plates. Then, the plates were incubated at 37 °C in a CO2 atmosphere for 24 h to obtain confluent cell growth. After incubation, cells were treated with different concentrations of compounds diluted in DMEM for 72 h or left untreated. Macrophage (5×10^5 cells.mL^−1) suspensions were prepared in RPMI‐1640 medium supplemented with 10 % FBS and added to 96‐well plates. Then, the plates were incubated at 37 °C in a CO2 atmosphere for 24 h to obtain confluent cell growth. After incubation, cells were treated with different concentrations of compounds diluted in RPMI‐1640 for 48 h or left untreated. After treatment, the medium was removed, and cells were incubated with MTT (2 mg.mL^−1) for 4 h. Then, DMSO was added for solubilization of the formazan and analyzed with a reading microplate reader (BIO‐TEK PowerWave XS spectrophotometer) at […].[20] The percentage of viable cells was calculated in relation to the untreated control group to determine the cytotoxic concentration in 50 % of the cells (CC50). The control groups of each experiment received the same experimental conditions as the treated groups (cell concentration used, temperature, CO2, and incubation time).

[3] = test system: epimastigote forms of Trypanosoma cruzi (Y strain); assay: Antiproliferative assay (XTT), epimastigote forms, 96 h; details: for IC50: Trypanosoma cruzi, epimastigote form, 96 h, XTT, read-out: T. cruzi IC50; for SIT-F, selectivity index (Fibroblast CC50/T. cruzi IC50): fibroblast vs epimastigote; for SIT-M, selectivity index (Macrophages CC50/T. cruzi IC50): macrophages vs epimastigote
Experimental: as §1, §2, §3

[4] = Cytotoxicity assay in mammalian cells (MTT), macrophages, 48 h; details: mouse, J774 A1 macrophages, pH 7.2; 50 % inhibition of macrophages growth, 48 h, MTT
Experimental: as §1, §2, §4

Row | SMILES | IC50 [1] [µM] | SIL-F, selectivity index (Fibroblast CC50/L. amazonensis IC50) [1] | SIL-M, selectivity index (Macrophages CC50/L. amazonensis IC50) [1] | CC50 at 72 h [2] [µM] | IC50 [3] [µM] | SIT-F, selectivity index (Fibroblast CC50/T. cruzi IC50) [3] | SIT-M, selectivity index (Macrophages CC50/T. cruzi IC50) [3] | CC50 at 48 h [4] [µM]
1 | COc1ccc(NCc2c(C(=O)N/N=C/c3ccccc3)noc2-c2ccc([N+](=O)[O-])cc2)cc1 [4 ac] | 14.5 ± 2.2 | 16.63 | 14.43 | 241 ± 3.8 | 18.7 ± 1.4 | 12.89 | 11.19 | 209 ± 8.5
2 | O=C(N/N=C/c1ccccn1)c1noc(-c2ccc([N+](=O)[O-])cc2)c1CNc1ccc(Cl)cc1 [5 ab] | 26 ± 2.1 | 3.88 | 3.55 | 101 ± 4.4 | 24.7 ± 2.9 | 4.08 | 3.81 | 94.2 ± 3.9
3 | COc1ccc(NCc2c(C(=O)N/N=C/c3ccccn3)noc2-c2ccc([N+](=O)[O-])cc2)cc1 [5 ac] | > 200 | – | – | 801 ± 10.4 | > 200 | – | – | 723.6 ± 3
4 | COc1ccc(NCc2c(C(=O)N/N=C/c3ccccn3)noc2-c2ccccc2)cc1 [5 bc] | 17.9 ± 3.7 | 10.3 | 9.88 | 184 ± 5.1 | 19.4 ± 1.1 | 9.50 | 9.11 | 177 ± 9.8
5 | COc1ccc(NCc2c(C(=O)N/N=C/c3ccccn3)noc2-c2ccc(F)cc2)cc1 [5 cc] | 18 ± 2.5 | 16.16 | 14.18 | 291 ± 4.7 | 19.7 ± 0.9 | 14.76 | 12.96 | 255 ± 8.1
6 | O=C(N/N=C/c1ccc(-c2cccs2)s1)c1noc(-c2ccc([N+](=O)[O-])cc2)c1CNc1ccc(Cl)cc1 [6 ab] | 12.7 ± 1.1 | 9.12 | 7.50 | 116 ± 5.5 | 13.8 ± 1.5 | 8.39 | 6.91 | 95.3 ± 5.3
7 | COc1ccc(NCc2c(C(=O)N/N=C/c3ccc(-c4cccs4)s3)noc2-c2ccc([N+](=O)[O-])cc2)cc1 [6 ac] | 48.9 ± 7.1 | 4.72 | 3.75 | 231 ± 5.9 | 52.5 ± 2.9 | 4.40 | 3.50 | 184 ± 3
8 | O=C(N/N=C/c1ccc(-c2cccs2)s1)c1noc(-c2ccccc2)c1CNc1ccccc1 [6 ba] | 46.9 ± 3 | 4.45 | 4.19 | 209 ± 2.9 | 52.4 ± 2.9 | 3.98 | 3.75 | 196 ± 4.4
9 | O=C(N/N=C/c1ccc(-c2cccs2)s1)c1noc(-c2ccc(F)cc2)c1CNc1ccccc1 [6 ca] | 34.6 ± 2.4 | 11.2 | 8.92 | 388 ± 4.7 | 42.7 ± 5.6 | 9.07 | 7.22 | –
10 | O=C(N/N=C/c1ccc(-c2cccs2)s1)c1noc(-c2ccc(F)cc2)c1CNc1ccc(Cl)cc1 [6 cb] | 19.7 ± 2.6 | 10.9 | 10.6 | 215 ± 8.9 | 20.4 ± 3.6 | 10.5 | 10.3 | 210 ± 3.1

From PMC8485799, “Synthesis and Antiprotozoal Profile of 3,4,5‐Trisubstituted Isoxazoles” (ChemistryOpen, 2021)
